≈ marks a conversion by molar mass, not a printed value.
Legend:
[1] = Solubility of the compound at pH 7.4; assay type: physicochemical; details: buffer
[2] = Solubility of the compound at pH 6.5; assay type: physicochemical; details: buffer
[3] = target: T1, Serine/threonine-protein kinase B-raf (Homo sapiens, UniProt P15056, V600E); experiment: Inhibition of full-length B-Raf V600E mutant
[4] = target: T1, Serine/threonine-protein kinase B-raf; experiment: Inhibition of B-Raf V600E mutant-mediated Erk phosphorylation in human MALME-3M cells; assay type: cell-based

T1 sequence (P15056 2-766 V600E limits assumed): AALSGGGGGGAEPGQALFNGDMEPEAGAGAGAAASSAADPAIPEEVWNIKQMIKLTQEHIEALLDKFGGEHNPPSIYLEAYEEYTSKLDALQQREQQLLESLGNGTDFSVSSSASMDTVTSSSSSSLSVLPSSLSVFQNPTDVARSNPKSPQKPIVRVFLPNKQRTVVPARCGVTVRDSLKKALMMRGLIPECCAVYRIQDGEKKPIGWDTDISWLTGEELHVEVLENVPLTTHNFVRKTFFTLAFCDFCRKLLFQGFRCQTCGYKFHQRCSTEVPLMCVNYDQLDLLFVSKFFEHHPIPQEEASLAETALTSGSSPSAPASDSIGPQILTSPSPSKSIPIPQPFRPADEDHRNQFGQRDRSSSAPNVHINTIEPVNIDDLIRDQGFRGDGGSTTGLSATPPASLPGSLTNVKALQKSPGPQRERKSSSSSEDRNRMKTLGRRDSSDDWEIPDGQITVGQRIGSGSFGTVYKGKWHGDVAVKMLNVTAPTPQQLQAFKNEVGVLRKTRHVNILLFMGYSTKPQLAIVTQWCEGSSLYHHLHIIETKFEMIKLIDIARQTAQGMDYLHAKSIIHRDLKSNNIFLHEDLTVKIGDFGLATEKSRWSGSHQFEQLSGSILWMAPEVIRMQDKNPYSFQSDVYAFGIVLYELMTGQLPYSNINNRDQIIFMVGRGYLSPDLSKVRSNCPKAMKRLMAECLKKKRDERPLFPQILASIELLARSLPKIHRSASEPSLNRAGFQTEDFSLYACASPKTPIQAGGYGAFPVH

Which solubility [1] does the source give for `CCCS(=O)(=O)Nc1ccc(F)c(C(=O)Nc2cnc3[nH]nc(OC)c3c2)c1F` here?
The solubility was 9 µg/mL (≈ 21.2 µM).

What about the solubility [2] of the same molecule?
The solubility was 4 µg/mL (≈ 9.4 µM).

For `CCCS(=O)(=O)Nc1ccc(Cl)c(C(=O)Nc2cnc3[nH]nc(OC)c3c2)c1F`, which solubility [1] is on record?
The solubility was 2 µg/mL (≈ 4.53 µM).

And the solubility [2]?
Its solubility is under 1 µg/mL.

Which results are given for `CCCS(=O)(=O)Nc1ccc(F)c(C(=O)Nc2cnc3[nH]nc(OC)c3c2)c1Cl`?
IC50 [3]: 2.2 nM; IC50 [4]: 19 nM; solubility [1]: 2 µg/mL (≈ 4.53 µM); solubility [2]: < 1 µg/mL

Which IC50 [3] does the source give for `CCCS(=O)(=O)Nc1ccc(F)c(C(=O)Nc2cnc3[nH]nc(C(C)C)c3c2)c1F` here?
The IC50 was 14 nM.

What about the IC50 [4] of the same molecule?
The IC50 was 89 nM.

What about the solubility [2] of the same molecule?
Its solubility is 6 µg/mL (≈ 13.7 µM).

With `CCCS(=O)(=O)Nc1ccc(F)c(C(=O)Nc2cnc3[nH]nc(C4CC4)c3c2)c1F` as the molecule, how does the IC50 [3] read?
Its IC50 is 2.7 nM.

And the IC50 [4]?
Its IC50 is 23 nM.

And the solubility [1]?
The solubility was 4 µg/mL (≈ 9.19 µM).

What about the solubility [2] of the same molecule?
The solubility was 1 µg/mL (≈ 2.3 µM).

Which IC50 [3] does the source give for `CCCS(=O)(=O)Nc1ccc(F)c(C(=O)Nc2cnc3[nH]nc(C4CC4)c3c2)c1Cl` here?
The IC50 was 3.8 nM.

What about the IC50 [4] of the same molecule?
The IC50 was 33 nM.

What about the solubility [1] of the same molecule?
The solubility was 127 µg/mL (≈ 281 µM).

And the solubility [2]?
Its solubility is 54 µg/mL (≈ 119 µM).

Which IC50 [3] does the source give for `CC(C)CS(=O)(=O)Nc1ccc(F)c(C(=O)Nc2cnc3[nH]nc(C4CC4)c3c2)c1Cl` here?
Its IC50 is 2 nM.

What about the IC50 [4] of the same molecule?
Its IC50 is 18 nM.

What about the solubility [1] of the same molecule?
The solubility was under 1 µg/mL.

What about the solubility [2] of the same molecule?
Its solubility is 1 µg/mL (≈ 2.15 µM).

What does the source list for `O=C(Nc1cnc2[nH]nc(C3CC3)c2c1)c1c(F)ccc(NS(=O)(=O)CCCF)c1Cl`?
IC50 [3]: 0.6 nM; IC50 [4]: 51 nM; solubility [1]: 265 µg/mL (≈ 564 µM); solubility [2]: 130 µg/mL (≈ 277 µM)

From ChEMBL document CHEMBL1938390, “Pyrazolopyridine inhibitors of B-Raf(V600E). Part 3: an increase in aqueous solubility via the disruption of crystal packing” (Bioorg Med Chem Lett, 2012)
